Data as given in patent US20250381118A1, “SKIN TREATMENT METHODS” (Amazentis SA, priority 2017, published 2025).

Experiments:
[1] = tested on: MelanoDerm™ tissues (MEL-300-B); assay: MelanoDerm quantification of melanin content; assay type: cell-based, human; settings: 14 days; for Melanin content versus Kojic acid at 2%: 100 μM, Student t test
Experimental: (§1) The MelanoDerm™ cultures from MatTek Corporation (Ashland, Massachusetts, USA) are a pigmented 3D-Living Skin Equivalent model. MEL-300 tissues are obtained by seeding keratinocytes with melanocytes. MEL-300-B cultures contain melanocytes derived from a donor tissue and are used for the evaluation of skin lightening potential. MEL-300-B were prepared in a long life maintenance medium (EPI-100-LLMM available from the MatTek Corporation) and cultured for a total of 14 days. A total of four tissue replicates (n=4) was used per group.
(§2) Untreated tissue was used as negative control. Maintenance medium was refreshed every 2 days.
(§3) Urolithin A was applied to the samples by addition to the maintenance medium at a final concentration of 50 and 100 µM, prepared from a stock solution at 50 mM in DMSO. A vehicle control was prepared using DMSO at 0.2% in maintenance medium. Maintenance medium added in Urolithin A or DMSO was refreshed every 2 days. Kojic acid was used as a positive control at 2% in 50:50 butylene glycol: water and applied topically (i.e. on the stratum corneum, the outermost layer of the epidermis, of the MelanoDerm™ sample). Kojic acid is a well-known inhibitor of tyrosinase, a key enzyme that is responsible for melanogenesis in melanoma and melanocytes, and is used to treat hyperpigmentation, melasma, and wrinkle in cosmetics products. Every 2 days, tissues were rinsed with sterile PBS to remove Kojic acid prior to adding a fresh preparation of kojic acid at 2% in 50:50 butylene glycol: water. Maintenance medium was changed at the same time. • a. At day 14, all tissues were photographed by top view for macroscopic analysis of pigmentation using a Nikon Eclipse Ti microscope. […] It is also visible that tissues treated with Urolithin A at 50 and 100 μM are as light as the tissues treated with the positive control Kojic acid applied topically at 2%. • b. The lightness of the samples was assessed by measuring the L value using the Konica Minolta Color Spectrophotometer (CM-700d) at day 0, 4, 7, 11 and 14. The L value tells how light or dark the color is, with black corresponding to L=0 and white to L=100. FIG. 3 represents the L values measured in the difference samples. […] At the end of the treatment, the L-values of tissues treated with Urolithin A and Kojic acid are equivalent, confirming what is visible in FIG. 2. […] Three tissues per group were used for the quantification of melanin. Tissues were first incubated in PBS to remove any phenol red remaining from the maintenance medium. Tissues were placed in a 1.7 ml microfuge tube with 500 μl of Solvable™ (Tissue and Gel Solubilizer 0.5 M-Packard BioScience Co. Catalogue No. 6NE9100) and incubated at 95° C. overnight along with melanin standards. Melanin standards were prepared by dissolving melanin (Sigma catalog number M8631) in Solvable™ at 1 mg/ml to make stock solution.
Following overnight incubation, samples were centrifuged at 13000 rpm for 5 minutes to pellet any insoluble material. 200 μl of each sample were transferred to a 96-well plate and read at 490 nm. FIG. 4 represents the results for the melanin content expressed in μg. Statistical significance was performed using a one-way ANOVA, followed by a Dunnett post-hoc test for multiple comparison of each group against the negative control.

[2] = tested on: EpiDerm™ tissues (EPI-200, normal human-derived epidermal keratinocytes); assay: EpiDerm skin cell viability (MTT) assay; assay type: cell-based; settings: 96 hours; for Relative cell viability (% of negative control): basolateral, 90% = irritant threshold
Experimental: Pre-screen treatment conditions: A good skin lightener should inhibit melanin synthesis but not cause cytotoxicity to the tissue. The impact of Urolithin A on skin cells viability was performed with the EpiDerm tissue (EPI-200). The reconstructed human epidermal model EpiDerm™ (EPI-200, MatTek, Ashland, USA) consists of normal human-derived epidermal keratinocytes, which have been cultured to form a multilayered highly differentiated model of the human epidermis.
Tissues were grown in maintenance medium (EPI-100-LLMM available from the MatTek Corporation). Treatment was done basolaterally, i.e. with the test compounds dissolved in the maintenance medium, for a total duration of 96 hours. Two EpiDerm™ tissues (n=2) were used per condition, which were 1) water, 2) DMSO 0.5%, 3) Urolithin A 25 μM, 4) Urolithin A 50 μM and 5) Urolithin A 100 μM. Maintenance medium added or not in Urolithin A or DMSO was refreshed at 48 hours.
Cell viability is measured by dehydrogenase conversion of MTT [(3-4,5-dimethylthiazole-2-yl) 2,5-diphenyltetrazoliumbromide], present in cell mitochondria, into a blue formazan salt that is quantitatively measured after extraction from tissues. The MTT assay was performed by transferring the tissues to 24-well plates containing MTT medium (1 mg/ml). After a 3 hr MTT incubation, the blue formazan salt formed by cellular mitochondria was extracted with 2.0 ml/tissue of isopropanol (extractant solution, part #MTT-100-EXT) and the optical density of the extracted formazan was determined using a spectrophotometer at 570 nm. Relative cell viability was calculated for each tissue as % of the mean of the negative control tissues.

[3] = tested on: MelanoDerm™ tissues (MEL-300-B); assay: MelanoDerm macroscopic analysis of pigmentation (top view); assay type: cell-based, human; settings: day 14
Experimental: as §1, §2
as §3, with “Melanin standards were prepared by dissolving melanin (Sigma catalog number M8631) in Solvable™ at 1 mg/ml to make stock solution.” left out

[4] = tested on: MelanoDerm™ tissues (MEL-300-B); assay: MelanoDerm lightness, L value by color spectrophotometer; assay type: cell-based, human; settings: for L value versus negative control group: from day 4 until day 14
Experimental: as §1, §2, §3

[5] = Particle size distribution after micronisation (Malvern Mastersizer 2000); assay type: physicochemical; settings: micronized, spiral jet mill
Text: Urolithin A was micronized using an MC50 Spiral 20 Jetmill (Valortecs SAS, Blodelsheim, France), using filtered nitrogen, with a feed rate of 240 g/hr, a Venturi pressure of 12 bar, and a mill pressure of 12 bar. Urolithin A was micronized to give urolithin A having a particle size distribution of D90=9 μm to 15 μm and D50=2 to 9 μm. The actual particle size distribution was D90=11.5 μm, D50=3.9 μm, D10=0.7 μm, measured using a Malvern Mastersizer 2000.

[6] = Solubility (water; topical cream); assay type: physicochemical; settings: topical cream including lipophilic excipients, e.g. an oil and/or a medium chain triglyceride
rodents = settings: cited from earlier work

SMILES: O=c1cc(CO)occ1O [Kojic acid, reference compound]
- Decrease of melanin content compared to the negative control ([1]; 2% in 50:50 butylene glycol:water, applied topically): 62%

SMILES: O=c1oc2cc(O)ccc2c2ccc(O)cc12 [Urolithin A]
- Relative cell viability (% of negative control) ([2]; Urolithin A 25 μM): higher than 90%
- Relative cell viability (% of negative control) ([2]; Urolithin A 50 μM): higher than 90%
- Relative cell viability (% of negative control) ([2]; Urolithin A 100 μM): higher than 90%
- Effect on skin cell viability / cytotoxicity ([2]; at the tested concentrations (25, 50, 100 μM)): does not impair skin cell viability
- Macroscopic pigmentation versus negative control and DMSO 0.2% group ([3]; 50 μM in maintenance medium): consistently lighter
- Macroscopic pigmentation versus positive control Kojic acid 2% topical ([3]; 50 μM in maintenance medium): as light as
- Macroscopic pigmentation versus negative control and DMSO 0.2% group ([3]; 100 μM in maintenance medium): consistently lighter
- Macroscopic pigmentation versus positive control Kojic acid 2% topical ([3]; 100 μM in maintenance medium): as light as
- Speed of tissue-lightening effect versus Kojic acid ([4]; 50 μM): faster tissue-lightening effects
- L value versus negative control group ([4]; 50 μM): significantly higher
- Speed of tissue-/skin-lightening effect versus Kojic acid ([4]; 100 μM): faster tissue-lightening effects
- L value versus negative control group ([4]; 100 μM): significantly higher
- Speed of tissue-/skin-lightening effect versus Kojic acid ([4]; 100 μM, listed as urolithin A): faster skin-lightening effects
- L value versus tissues treated with Kojic acid ([4]; Urolithin A 50 or 100 μM, day 4 and 7): higher L value
- L value versus tissues treated with Kojic acid ([4]; end of the treatment (day 14)): equivalent
- Decrease of melanin content compared to the negative control ([1]; 50 μM in maintenance medium): 65%
- Decrease of melanin content compared to the negative control ([1]; 100 μM in maintenance medium): 67%
- Melanin content versus Kojic acid at 2% [1]: significantly lower
- Melanin content versus Kojic acid at 2% ([1]; listed as urolithin A): greater decrease in melanin content
- Particle size D10 [5]: 0.7 μm
- Particle size D50 [5]: 3.9 μm
- Particle size D90 [5]: 11.5 μm
- Solubility in topical cream composition [6]: especially soluble
- Mitophagy (rodents; in vivo): induces mitophagy
- Lifespan (rodents; rodents): increases lifespan
